Assay results as given in the supplement of paper PMC10307832.

Assays:
Test in all cases: relative viability (nuclei count vs DMSO), 5 days (fraction); higher = more cells survive
Dactolisib + Pemetrexed = compound: Cn1c(=O)n(-c2ccc(C(C)(C)C#N)cc2)c2c3cc(-c4cnc5ccccc5c4)ccc3ncc21 [Dactolisib] + Nc1nc2[nH]cc(CCc3ccc(C(=O)N[C@@H](CCC(=O)O)C(=O)O)cc3)c2c(=O)[nH]1 [Pemetrexed] (partner 0.2 µM)
Method in brief: (§1)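 Lung cancer cell lines were seeded in 1536-well plates and dosed by pin tool the next day, with either a single drug or a fixed anchor-drug dose combined with five library-drug doses (not always all listed) spaced in √10 steps. Five days later, one step fixed the cells and stained their nuclei (final 0.05% Triton X-100, 1% formaldehyde, 1 ug/ml Hoechst), and nuclei were counted on 4× images. Relative viability is the nuclei count in treated wells divided by the count in vehicle wells, and each value is the median of duplicate plates.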

AZ505 + Palbociclib = compound: C1CCC(CC1)N(CCNCCC2=C3C(=C(C=C2)O)NC(=O)CO3)C(=O)CCNCCC4=CC(=C(C=C4)Cl)Cl [AZ505] + CC(=O)c1c(C)c2cnc(Nc3ccc(N4CCNCC4)cn3)nc2n(C2CCCC2)c1=O [Palbociclib] (partner 0.5 µM)
Method in brief: as §1

Dactolisib + Pictilisib = compound: Cn1c(=O)n(-c2ccc(C(C)(C)C#N)cc2)c2c3cc(-c4cnc5ccccc5c4)ccc3ncc21 [Dactolisib] + CS(=O)(=O)N1CCN(Cc2cc3nc(-c4cccc5[nH]ncc45)nc(N4CCOCC4)c3s2)CC1 [Pictilisib] (partner 1 µM)
Method in brief: as §1

AZ505 + Alpelisib = compound: C1CCC(CC1)N(CCNCCC2=C3C(=C(C=C2)O)NC(=O)CO3)C(=O)CCNCCC4=CC(=C(C=C4)Cl)Cl [AZ505] + Cc1nc(NC(=O)N2CCC[C@H]2C(N)=O)sc1-c1ccnc(C(C)(C)C(F)(F)F)c1 [Alpelisib] (partner 2 µM)
Method in brief: as §1

| Cell Line | relative viability (Dactolisib + Pemetrexed; first compound 0.002 µM) | relative viability (Dactolisib + Pemetrexed; first compound 0.006325 µM) | relative viability (Dactolisib + Pemetrexed; first compound 0.02 µM) | relative viability (Dactolisib + Pemetrexed; first compound 0.06325 µM) | relative viability (Dactolisib + Pemetrexed; first compound 0.2 µM) | relative viability (AZ505 + Palbociclib; first compound 0.08 µM) | relative viability (AZ505 + Palbociclib; first compound 0.253 µM) | relative viability (AZ505 + Palbociclib; first compound 0.8 µM) | relative viability (AZ505 + Palbociclib; first compound 2.53 µM) | relative viability (AZ505 + Palbociclib; first compound 8 µM) | relative viability (Dactolisib + Pictilisib; first compound 0.002 µM) | relative viability (Dactolisib + Pictilisib; first compound 0.006325 µM) | relative viability (Dactolisib + Pictilisib; first compound 0.02 µM) | relative viability (Dactolisib + Pictilisib; first compound 0.06325 µM) | relative viability (Dactolisib + Pictilisib; first compound 0.2 µM) | relative viability (AZ505 + Alpelisib; first compound 0.08 µM) | relative viability (AZ505 + Alpelisib; first compound 0.253 µM) | relative viability (AZ505 + Alpelisib; first compound 0.8 µM) | relative viability (AZ505 + Alpelisib; first compound 2.53 µM) | relative viability (AZ505 + Alpelisib; first compound 8 µM) |
| --- | --- | --- | --- | --- | --- | --- | --- | --- | --- | --- | --- | --- | --- | --- | --- | --- | --- | --- | --- | --- |
| EMC-BAC-2 | 0.424 | 0.39 | 0.448 | 0.456 | 0.416 | 0.437 | 0.528 | 0.496 | 0.509 | 0.526 | 0.528 | 0.542 | 0.512 | 0.379 | 0.341 | 0.718 | 0.759 | 0.696 | 0.761 | 0.831 |
| LK-2 | 0.278 | 0.263 | 0.249 | 0.117 | 0.171 | 0.487 | 0.73 | 0.768 | 0.792 | 0.898 | 0.479 | 0.547 | 0.499 | 0.33 | 0.251 | 0.968 | 0.923 | 1.29 | 1.13 | 1.16 |
| NCI-H2126 | 0.574 | 0.717 | 0.612 | 0.471 | 0.372 | 0.353 | 0.375 | 0.365 | 0.366 | 0.338 | 0.563 | 0.461 | 0.434 | 0.425 | 0.368 | 0.729 | 0.781 | 0.771 | 0.746 | 0.822 |
| NCI-H3122 | 0.171 | 0.189 | 0.203 | 0.192 | 0.211 | 0.212 | 0.228 | 0.18 | 0.19 | 0.197 | 0.59 | 0.608 | 0.575 | 0.442 | 0.336 | 0.79 | 0.677 | 0.772 | 0.721 | 0.836 |
| NCI-H1975 | 0.299 | 0.32 | 0.297 | 0.244 | 0.181 | 0.531 | 0.473 | 0.505 | 0.621 | 0.564 | 0.26 | 0.27 | 0.232 | 0.2 | 0.175 | 0.578 | 0.689 | 0.651 | 0.651 | 0.654 |
| NCI-H1944 | 0.461 | 0.564 | 0.585 | 0.286 | 0.244 | 0.346 | 0.325 | 0.339 | 0.3 | 0.308 | 0.36 | 0.334 | 0.305 | 0.233 | 0.253 | 0.845 | 0.858 | 0.839 | 0.806 | 0.881 |
| LU99A | 0.152 | 0.197 | 0.2 | 0.178 | 0.18 | 0.363 | 0.447 | 0.403 | – | 0.367 | 0.299 | 0.285 | 0.269 | 0.222 | 0.179 | 0.55 | 0.519 | 0.618 | 0.478 | 0.493 |
| NCI-H2347 | 0.459 | 0.459 | 0.426 | 0.411 | 0.422 | 0.37 | 0.451 | 0.38 | 0.448 | 0.485 | 0.49 | 0.599 | 0.482 | 0.389 | 0.237 | 0.558 | 0.591 | 0.643 | 0.522 | 0.714 |
| NCI-H1299 | – | – | – | – | – | – | – | – | – | – | 0.794 | 0.701 | 0.659 | 0.351 | 0.253 | 0.986 | 1.06 | 1.01 | 0.978 | 0.998 |
| NCI-H727 | – | – | – | – | – | 0.598 | 0.687 | 0.625 | 0.552 | 0.674 | 0.275 | 0.339 | 0.396 | 0.212 | 0.227 | 0.535 | 0.621 | 0.505 | 0.598 | 0.694 |
| ABC-1 | – | – | – | – | – | 0.469 | – | 0.686 | 0.661 | 0.517 | 0.675 | 0.618 | 0.627 | 0.402 | 0.331 | 0.881 | 1.01 | 1.1 | 1.26 | 1.02 |
| NCI-H1650 | 0.342 | 0.418 | 0.385 | 0.383 | 0.299 | 0.34 | 0.412 | 0.278 | 0.35 | 0.317 | 0.672 | 0.48 | 0.524 | 0.321 | 0.323 | – | – | – | – | – |
| ChaGo-K-1 | 0.27 | 0.261 | 0.255 | 0.256 | 0.247 | 0.823 | 0.999 | 1 | 0.92 | 0.91 | 0.723 | 0.744 | 0.491 | 0.923 | 0.552 | – | – | – | – | – |
| SW 900 | 0.498 | 0.48 | 0.474 | 0.259 | 0.271 | 0.542 | 0.505 | 0.471 | 0.509 | 0.542 | – | – | – | – | – | – | – | – | – | – |
| NCI-H596 | 0.457 | 0.428 | 0.513 | 0.41 | 0.401 | – | – | – | – | – | 0.373 | 0.348 | 0.383 | 0.352 | 0.299 | 0.483 | 0.453 | 0.49 | 0.626 | 0.52 |
| NCI-H1563 | 0.797 | 0.751 | 0.755 | 0.628 | 0.512 | – | – | – | – | – | 0.682 | 0.624 | 0.625 | 0.651 | 0.573 | 0.932 | 0.911 | 0.873 | 0.886 | 0.915 |
| A549 | – | – | – | – | – | – | – | – | – | – | 0.544 | 0.356 | 0.3 | 0.145 | 0.112 | 0.796 | 0.666 | 0.872 | 0.79 | 0.795 |
| NCI-H2342 | 0.75 | 0.833 | 0.721 | 0.779 | 0.599 | 0.472 | 0.509 | 0.575 | 0.549 | 0.505 | – | – | – | – | – | – | – | – | – | – |
| NCI-H522 | 1.08 | 0.774 | 1.11 | 0.927 | 0.851 | 0.91 | 0.946 | 0.891 | 1.04 | 1.16 | – | – | – | – | – | – | – | – | – | – |
| IA-LM | – | – | – | – | – | – | – | – | – | – | 0.371 | 0.331 | 0.219 | 0.116 | 0.0809 | 0.793 | 1.05 | 0.925 | 0.723 | 1 |
| EBC-1 | – | – | – | – | – | – | – | – | – | – | 0.332 | 0.279 | 0.279 | 0.204 | 0.171 | 0.815 | 0.806 | 0.893 | 0.857 | 0.66 |
